Experimental data: patent US20090088460A1, “Administration of E-3[3-[N-(4-methoxybenzenesulfonyl)-N-isopropylamino]phenyl]-3-(3-pyridyl)propenohydroxamic acid for preventing and/or treating inflammatory cutaneous pathologies/afflictions” (GALDERMA RESEARCH &DEVELOPMENT, priority 2007, published 2009)

Key:
[1] = tested on: arachidonic acid-induced mouse ear edema; assay: Arachidonic acid-induced mouse ear edema test, single topical application; type: in vivo; details: Balb/c mice; for reduction of the arachidonic acid-induced ear edema: 20 μl on right ear
Protocol: Evaluation of the Anti-Inflammatory Activity of W3646 (Compound (I)) after Single Topical Application in the Arachidonic Acid-Induced Mouse Ear Edema Test on Balb/c Mice
The arachidonic acid is dissolved in a mixture of THF/methanol at 4%.
The test compound is dissolved in the solution of arachidonic acid (AA) at the final concentration, and tested at concentrations of 0.1, 0.3 and 1%.
20 μl of the solution are applied to the inner face of the right ear.
The thickness of the ear is measured at T+1 h, T+2 h and T+4 h.

[2] = tested on: TPA-induced mouse ear edema; assay: TPA-induced mouse ear edema test, single topical application; type: in vivo; details: Balb/c mice; for reduction of the TPA-induced ear edema: T+6 h
Protocol: Evaluation of the Anti-Inflammatory Activity of W3646 (Compound (I)) after Single Topical Application in the TPA-Induced Mouse Ear Edema Test on Balb/c Mice (TPA=Tetradecanoylphorbol Acetate)
The edema is induced by single application of 20 μl of TPA dissolved in acetone at 0.01%. […]
A positive control, β-methasone valerate (VdB), is also tested.
The thickness of the mouse ear is measured at T+6 h.

## COc1ccc2c(c1)c(CC(=O)O)c(C)n2C(=O)c1ccc(Cl)cc1 [Indomethacin, reference compound]
[1]; indomethacin at 5%, single topical application in 4% arachidonic acid solution, ear thickness measured T+1 h, T+2 h, T+4 h
  inhibition of the ear edema caused by arachidonic acid: 92%

## COc1ccc(S(=O)(=O)N(c2cccc(/C(=C\C(=O)NO)c3cccnc3)c2)C(C)C)cc1 [W3646, E-3-[3-[N-(4-methoxybenzene-sulfonyl)-N-isopropylamino]phenyl]-3-(3-pyridyl)-propenohydroxamic acid]
[1]; 0.1% topical in 4% arachidonic acid solution, NS
  reduction of the arachidonic acid-induced ear edema: 16%
[1]; 0.3% topical in 4% arachidonic acid solution, *
  reduction of the arachidonic acid-induced ear edema: 49%
[1]; 1% topical in 4% arachidonic acid solution, **
  reduction of the arachidonic acid-induced ear edema: 71%
[2]; 0.1% in 0.01% TPA solution, NS
  reduction of the TPA-induced ear edema: 26%
[2]; 0.3% in 0.01% TPA solution, **
  reduction of the TPA-induced ear edema: 53%
[2]; 1% in 0.01% TPA solution, ***
  reduction of the TPA-induced ear edema: 79%

## CCCCC(=O)O[C@]1(C(=O)CO)[C@@H](C)C[C@H]2[C@@H]3CCC4=CC(=O)C=C[C@]4(C)[C@@]3(F)[C@@H](O)C[C@@]21C [betamethasone valerate, reference compound]
[2]; 0.01% diluted in 0.01% TPA solution, ear thickness at T+6 h, ***
  reduction in the TPA-induced ear edema: 93%
